# Like-named read-outs stand apart in the source and are kept apart here.
# Tests used:
# SARS-CoV-2 [1] = test: Plaque reduction assay in Vero E6 monolayers; type: cell-based; details: Vero E6, plaques counted at 72 h; for EC50: Severe acute respiratory syndrome coronavirus 2, Vero C1008, 72 h
# SARS-CoV-2 [2] = test: K18-hACE2 mouse SARS-CoV-2 infection model; type: in vivo, mice
# SARS-CoV-2 [3] = type: cell-based; details: Vero E6, MOI 0.2, 72 h
# SARS-CoV-2 [4] = type: cell-based
# SARS-CoV-2 [5] = test: microbe, parasite or virus in culture; details: Severe acute respiratory syndrome coronavirus 2, Vero C1008, 72 h
# SARS-CoV-2 [6] = type: cell-based; details: H23-hACE2, MOI 0.01, 48 hpi, vs mock treated
# [7] = Toxicity of ligand alone (LDH release, CC50); details: African green monkey
# SARS-CoV-2 [8] = details: Vero E6, MOI 0.2, 72 h
# H23 cells = test: Phospholipidosis assay; details: 48 h treatment, 100 μg/ml
# SARS-CoV-2 [9] = details: cited from earlier work
# SARS-CoV-2 [10] = details: cited from earlier work; remark: listed apart in the source
# Vero E6 cells = test: Toxicity of ligand alone (LDH release, CC50); details: drug alone, Vero E6, 72 h, LDH release
# sigma-1 over sigma-2 = details: cited from earlier work
# SARS-CoV-2 [11] = details: previously published study; cited from earlier work
# [12] = 45 mg/kg daily intraperitoneal from 24 hours after infection
# [13] = read-out: Cytotoxicity EC50 (inhibition of SARS-CoV-2-induced cytotoxicity)
# [14] = read-out: EC50 for inhibition of SARS-CoV-2 induced cytotoxicity
compound,measurement,setting,value
CC(CCCn1c(=O)sc2cc(F)ccc21)N1CCN(C2CCCCC2)CC1 (centres unmarked) [AZ66],EC50,SARS-CoV-2 [1]; read-out: EC50 by plaque reduction assay,15.9 µM
same,EC50,SARS-CoV-2 [1]; read-out: Plaque reduction EC50,6.46 µg/mL
same,Plaque reduction EC50,SARS-CoV-2 [1],6.47 µg/mL
same,weight loss associated with COVID-19,SARS-CoV-2 [2]; [12],delayed weight loss
same,reduction of cytopathic effects (CPE) by microscopy,SARS-CoV-2 [3],greatly reduce cytopathic effects
same,viral replication reduced by (qPCR),SARS-CoV-2 [4],99.9%
same,viral replication reduction (qPCR),SARS-CoV-2 [4],3 log
same,EC50,SARS-CoV-2 [5]; [13],45.1 µg/mL
same,EC50,SARS-CoV-2 [5]; [14],86.4 µM
same,decrease of SARS-CoV-2 concentration (TCID50),SARS-CoV-2 [6]; 50 μg/ml,~3 log
same,CC50 at 72 h,[7],128 µg/mL
O=c1sc2cc(CCCF)ccc2n1CCN1CCCCCC1 [CM304],reduction of cytopathic effects (CPE) by microscopy,SARS-CoV-2 [3],unable to visibly reduce CPE
same,more virus detected (RNA levels) compared to the 48 hours DMSO control,SARS-CoV-2 [4],61.2%
same,inhibition of SARS-CoV-2-induced cytotoxicity,SARS-CoV-2 [8],insignificant viral inhibition
same,phospholipidosis level,H23 cells,highest mean levels of phospholipidosis
"COc1cc2c(cc1OC)CN(CCCCn1c(=O)n(C)c3ccccc31)CC2 [CM398, 1-(4-(6,7-Dimethoxy-3,4-dihydroisoquinolin-2(1H)-yl)butyl)-3-methyl-1H-benzo[d]imidazol-2(3H)-one]",weight loss associated with COVID-19,SARS-CoV-2 [2]; [12],delayed weight loss
same,median survival,"SARS-CoV-2 [2]; 45 mg/kg daily intraperitoneal from 24 hours after infection, saline 5.5 days, not statistically significant",6.5 days
same,survival and recovery,"SARS-CoV-2 [2]; 45 mg/kg daily intraperitoneal, group of 5 mice",One mouse in the CM398 group survived and regained all weight lost
same,reduction of cytopathic effects (CPE) by microscopy,SARS-CoV-2 [3],greatly reduce cytopathic effects
same,viral replication reduced by (qPCR),SARS-CoV-2 [4],97.5%
same,EC50,SARS-CoV-2 [5]; [13],51.3 µg/mL
same,EC50,SARS-CoV-2 [5]; [14],130 µM
same,decrease of SARS-CoV-2 concentration (TCID50),SARS-CoV-2 [6]; 100 μg/ml,~1 log
same,CC50 at 72 h,[7],111 µg/mL
COc1cccc2c1CCCC2CCCN1CCN(C2CCCCC2)CC1 (centres unmarked) [PB28],in vivo efficacy,SARS-CoV-2 [9],ineffective
same,in vivo toxicity,SARS-CoV-2 [9],toxic
same,in vitro SARS-CoV-2 inhibitory effects,SARS-CoV-2 [10],sub-nanomolar
"COc1ccc(CCN2CCN(CCCc3ccccc3)CC2)cc1OC [SA4503, cutamesine, reference compound]",reduction of cytopathic effects (CPE) by microscopy,SARS-CoV-2 [3],unable to visibly reduce CPE
same,viral replication reduced by (qPCR),SARS-CoV-2 [4],56.2%
same,Cytotoxicity EC50 (inhibition of SARS-CoV-2-induced cytotoxicity),SARS-CoV-2 [8]; LDH release,110.5 µg/mL
same,EC50,"SARS-CoV-2 [8]; read-out: EC50 for inhibition of SARS-CoV-2 induced cytotoxicity, LDH release",300 µM
same,Cytotoxicity CC50,Vero E6 cells,198.7 µg/mL
same,preference for sigma-1 over sigma-2,sigma-1 over sigma-2,> 15 fold
"CN(C)CCOC(c1ccccc1)c1ccccc1 [diphenhydramine, reference compound]",reduction of N-protein RNA copies (qPCR),SARS-CoV-2 [4],32.2%
same,EC50,SARS-CoV-2 [5]; [13],122 µg/mL
same,EC50,SARS-CoV-2 [5]; [14],418 µM
same,decrease of SARS-CoV-2 concentration (TCID50),SARS-CoV-2 [6]; 40 μg/ml,~2 log
CCC(CC)COC(=O)[C@H](C)N[P@](=O)(OC[C@H]1O[C@@](C#N)(c2ccc3c(N)ncnn23)[C@H](O)[C@@H]1O)Oc1ccccc1 [remdesivir],reported SI (CC50/EC50),SARS-CoV-2 [11],> 4.96

# — patent US20240307370A1, “SIGMA RECEPTOR LIGANDS FOR TREATING SARS-COV-2 INFECTION” (University of Florida Research Foundation, Incorporated, priority 2021, published 2024)
